The values that follow come from US20070190145A1, “DRUG DELIVERY SYSTEMS COMPRISING WEAKLY BASIC SELECTIVE SEROTONIN 5-HT3 BLOCKING AGENT AND ORGANIC ACIDS” (EURAND, INC., priority 2006, published 2007).

For data set [1] the following is noted: in vivo; cited from earlier work.
Data set [2] can be described thus: Solubilities of weakly basic drugs in organic acid buffers.
The nature of the next data set: pH-dependent solubility. The format is physicochemical. From the text: Although carvedilol's solubility is similarly pH-dependent and varying, it is not obvious from FIG. 1 as it rapidly undergoes in situ salt formation with the buffering agent such as citric, acetic, and hydrochloric acids and consequently, the observed solubility is that of the salt formed in-situ.

A short description of data set [3]: PK modeling (WinNonlin 1-compartment fit, Stella simulation) of 8 mg ondansetron hydrochloride IR tablet plasma data. The procedure: In order to assess the type of in vitro release profile needed to achieve a once-daily plasma concentration profile, a modeling exercise was performed using the pharmacokinetic parameters for ondansetron hydrochloride reported in “Ondansetron Absorption in Adults: Effect of Dosage Form, Food, and Antacids” in Journal of Pharmaceutical Sciences Vol. (1994) by Bozigian et al. Mean plasma concentrations achieved in 24 healthy, adult male volunteers, who received a single 8 mg ondansetron hydrochloride IR tablet in the fasted state, were used using the software program, WinNonlin™ Standard Version 2.1 to fit a 1-compartment first order model with a lag-time assuming first order elimination kinetics.
The primary parameters were then input into another software, Stella Version 6.01 using a previously established model with slight modifications. Different in vitro release profiles were generated, and from target once-daily release profiles, desired in vitro release (medium, target and fast) profiles were generated by deconvolution.

The mark [4] stands for this setting: single 8 mg IR tablet, fasted, 1-compartment model fit.
Where [5] appears, read: single 8 mg IR tablet, fasted, secondary parameter.

Values after ≈ are worked out from the molar mass of the structure shown. Where two headings read alike, the source gives them in different places.

For `COc1ccccc1OCCNCC(O)COc1cccc2[nH]c3ccccc3c12` (racemic) [Carvedilol], the “Solubility (mg/mL) of Carvedilol in Tartaric Acid” value by setting is: (pH 2.12) 2.51 mg/mL; (pH 2.28) 1.36 mg/mL; (pH 3.64) 0.121 mg/mL; (pH 5.46) 0.105 mg/mL; (pH 5.9) 0.028 mg/mL.
Turning to `Cc1nccn1CC1CCc2c(c3ccccc3n2C)C1=O.Cl.O.O` (racemic) [Ondansetron Hydrochloride, (±) 1,2,3,9-tetrahydro-9-methyl-3-[(2-methyl-1H-imidazole-1-yl)methyl]-4H-carbazol-4-one monohydrochloride dihydrate], the elimination half-life entry in data set [1] is recorded as “approximately 3.8±1 hrs”. For the same compound, the solubility was 26900 µg/mL in data set [2] (pH 2.01, aqueous buffer, Solubility of Ondansetron Hydrochloride, fumaric acid 5 mg/mL, start pH 2.13, end pH 2.01); 27000 µg/mL in data set [2] (pH 2.14, aqueous buffer, Solubility of Ondansetron Hydrochloride, fumaric acid 2.5 mg/mL, start pH 2.26, end pH 2.14); 26100 µg/mL in data set [2] (pH 2.4, aqueous buffer, Solubility of Ondansetron Hydrochloride, fumaric acid 1 mg/mL, start pH 2.48, end pH 2.40); 26200 µg/mL in data set [2] (pH 2.75, aqueous buffer, Solubility of Ondansetron Hydrochloride, fumaric acid 0.25 mg/mL, start pH 2.79, end pH 2.75); 26000 µg/mL in data set [2] (pH 3.49, aqueous buffer, Solubility of Ondansetron Hydrochloride, fumaric acid 0.05 mg/mL, start pH 3.19, end pH 3.49); approximately 26000 µg/mL in data set [2] (pH 3.49, aqueous buffer, solubility, buffer containing only 0.05 mg/mL of fumaric acid, unchanged up to 5 mg/mL). For the same compound, the solubility is 26100 µg/mL in data set [2] (pH 4.05, aqueous buffer, Solubility of Ondansetron Hydrochloride, fumaric acid 0.01 mg/mL, start pH 3.64, end pH 4.05); 26100 µg/mL in data set [2] (pH 4.33, aqueous buffer, Solubility of Ondansetron Hydrochloride, fumaric acid 0.0025 mg/mL, start pH 4.15, end pH 4.33); approximately 50 µg/mL in the data set “pH-dependent solubility” (aqueous buffer, at pH 6.8). Also, the “ratio of optimal highest dose (mg) to the solubility (mg/mL) at pH 6.8” value in “pH-dependent solubility” (optimal highest dose 16 or 24 mg, pH 6.8) came to 320. In data set [3] (male, human, plasma), the t1/2 is 3.65 h. Also, the Vd in data set [3] (single 8 mg IR tablet, fasted, 24 healthy adult male volunteers, 1-compartment first order model fit) is recorded as 238.26. In addition, the Ka in data set [3] (setting [4]) is 1.49 per hour. This compound also showed a Ke in data set [3] (setting [4]) of 0.19 per hr. The compound also had a Tlag in data set [3] (setting [4]) of 0.41 h. This compound also showed an AUC in data set [3] (setting [5]) of 170 ng·h/mL. Moreover, the Cl in data set [3] (setting [5]) is 46.06 L/h. The compound also gave a Cm in data set [3] (setting [5]) of 0.0248 mg/L. The Tmax in data set [3] (setting [5]) is 1.98 h.
As for `O=C1CN=C(c2ccccc2Cl)c2cc([N+](=O)[O-])ccc2N1` [Clonazepam], the “solubility enhancement by organic acid” value in data set [2] (Group C actives) is “less than 3 fold”. Moreover, the solubility was approximately 11.6 µg/mL (≈ 36.7 µM) in data set [2] (pH 2.3, aqueous buffer, solubility, fumaric acid buffer at pH 2.3 (higher acid concentration)); 9.6 µg/mL (≈ 30.4 µM) in data set [2] (pH 3.2, aqueous buffer, Solubility (mg/mL) of Clonazepam in Fumaric Acid, pH of buffer 3.2); 9.8 µg/mL (≈ 31 µM) in data set [2] (pH 3.7, aqueous buffer, Solubility (mg/mL) of Clonazepam in Fumaric Acid, pH of buffer 3.7); 9.5 µg/mL (≈ 30.1 µM) in data set [2] (pH 4.8, aqueous buffer, Solubility (mg/mL) of Clonazepam in Fumaric Acid, pH of buffer 4.8); 9.3 µg/mL (≈ 29.5 µM) in data set [2] (pH 5.5, aqueous buffer, Solubility (mg/mL) of Clonazepam in Fumaric Acid, pH of buffer 5.5); 7.2 µg/mL (≈ 22.8 µM) in data set [2] (pH 6.2, aqueous buffer, Solubility (mg/mL) of Clonazepam in Fumaric Acid, pH of buffer 6.2). The solubility in data set [2] (pH 6.8, aqueous buffer, Solubility (mg/mL) of Clonazepam in Fumaric Acid, pH of buffer 6.8) is 6.9 µg/mL (≈ 21.9 µM); in data set [2] (pH 6.8, aqueous buffer, solubility, fumaric acid buffer at pH 6.8 (lower acid concentration)), approximately 6.9 µg/mL (≈ 21.9 µM). Moreover, the “Solubility (mg/mL) of Clonazepam in Fumaric Acid” value is reported as 0.0116 mg/mL in data set [2] (pH of buffer 2.3) and 0.0103 mg/mL in data set [2] (pH of buffer 2.8).
On to `OCCN(CCO)c1nc(N2CCCCC2)c2nc(N(CCO)CCO)nc(N3CCCCC3)c2n1` [Dipyridamole], for which the solubility is 30 µg/mL (≈ 59.4 µM) in “pH-dependent solubility” (aqueous buffer, at pH 6.8); approximately 1000 µg/mL (≈ 1980 µM) in “pH-dependent solubility” (simulated gastric fluid, in 0.1N HCl); 6240 µg/mL (≈ 12400 µM) in the data set “physchem” (pH 2.98, aqueous buffer); 1800 µg/mL (≈ 3570 µM) in “physchem” (pH 3.42, aqueous buffer); 930 µg/mL (≈ 1840 µM) in “physchem” (pH 3.68, aqueous buffer); 650 µg/mL (≈ 1290 µM) in “physchem” (pH 3.88, aqueous buffer). Besides, the solubility stood at 270 µg/mL (≈ 535 µM) in “physchem” (pH 4.33, aqueous buffer); 130 µg/mL (≈ 258 µM) in the data set “physchem” (pH 4.71, aqueous buffer); 6 µg/mL (≈ 11.9 µM) in “physchem” (pH 6.28, aqueous buffer).
For `Nc1nnc(-c2cccc(Cl)c2Cl)c(N)n1` [Lamotrigine], the solubility in “physchem” (pH 2.43, aqueous buffer) is 4480 µg/mL (≈ 17500 µM); in “physchem” (pH 3.33, aqueous buffer) it was 1770 µg/mL (≈ 6910 µM); in “physchem” (pH 4.36, aqueous buffer), 1610 µg/mL (≈ 6290 µM); in the data set “physchem” (pH 4.97, aqueous buffer) it was 488 µg/mL (≈ 1910 µM); in the data set “physchem” (pH 5.66, aqueous buffer), 226 µg/mL (≈ 882 µM); in “physchem” (pH 5.85, aqueous buffer) it was 197 µg/mL (≈ 769 µM). In “physchem” (pH 6.5, aqueous buffer), this compound showed a solubility of 161 µg/mL (≈ 629 µM).
